Test system: 817829-284-R-J1-PDC complex spheroid viability
Experiment: Anticancer human tumor 817829-284-R-J1-PDC patient-derived colon adenocarcinoma cell line growth inhibition [POLQ]
Settings: for IC50: curve of first compound; for viability, T/C: stronger effect = lower value
In short: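 Complex spheroid viability model combining PDC tumour cells with endothelial (HUVEC) and MSC stromal cells. Novobiocin, ART-558 or RP6685 were tested singly and in combination with standard and investigational anticancer drugs. Each was titrated in half-log steps from near clinical Cmax, or from 10 microM where Cmax was unknown.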

[1] = second compound 0.0316 µM, first compound 0.0316 µM
[2] = second compound 0.0316 µM, first compound 0.1 µM
[3] = second compound 0.0316 µM, first compound 0.316 µM
[4] = second compound 0.0316 µM, first compound 1 µM
[5] = second compound 0.0316 µM, first compound 3.16 µM
[6] = second compound 0.0316 µM, first compound 10 µM
[7] = second compound 0.1 µM, first compound 0.0316 µM
[8] = second compound 0.1 µM, first compound 0.1 µM
[9] = second compound 0.1 µM, first compound 0.316 µM
[10] = second compound 0.1 µM, first compound 1 µM
[11] = second compound 0.1 µM, first compound 3.16 µM
[12] = second compound 0.1 µM, first compound 10 µM
[13] = second compound 0.316 µM, first compound 0.0316 µM
[14] = second compound 0.316 µM, first compound 0.1 µM
[15] = second compound 0.316 µM, first compound 0.316 µM
[16] = second compound 0.316 µM, first compound 1 µM
[17] = second compound 0.316 µM, first compound 3.16 µM
[18] = second compound 0.316 µM, first compound 10 µM
[19] = second compound 1 µM, first compound 0.0316 µM
[20] = second compound 1 µM, first compound 0.1 µM
[21] = second compound 1 µM, first compound 0.316 µM
[22] = second compound 1 µM, first compound 1 µM
[23] = second compound 1 µM, first compound 3.16 µM
[24] = second compound 1 µM, first compound 10 µM
[25] = second compound 3.16 µM, first compound 0.0316 µM
[26] = second compound 3.16 µM, first compound 0.1 µM
[27] = second compound 3.16 µM, first compound 0.316 µM
[28] = second compound 3.16 µM, first compound 1 µM
[29] = second compound 3.16 µM, first compound 3.16 µM
[30] = second compound 3.16 µM, first compound 10 µM
[31] = second compound 10 µM, first compound 0.0316 µM
[32] = second compound 10 µM, first compound 0.1 µM
[33] = second compound 10 µM, first compound 0.316 µM
[34] = second compound 10 µM, first compound 1 µM
[35] = second compound 10 µM, first compound 3.16 µM
[36] = second compound 10 µM, first compound 10 µM
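Note: spheroids exposed to compounds for 7 days.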
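Throughout, for viability, T/C: 100% = DMSO vehicle-treated spheroids.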

## CC1COCCN1c1cc(C2(O)CC3CCC(C2)O3)c2cnn(-c3ccn[nH]3)c2n1 (stereo not drawn) + Nc1ccc(C#CCN(C(=O)Cc2ncc(C(F)(F)F)cc2C(F)(F)F)c2ccc(F)cc2)nn1
Second compound 0.0316 µM
  IC50: < 31.6 nM
Second compound 0.1 µM
  IC50: < 31.6 nM
Second compound 0.316 µM
  IC50: < 31.6 nM
Second compound 1 µM
  IC50: < 31.6 nM
Second compound 3.16 µM
  IC50: < 31.6 nM
Second compound 10 µM
  IC50: < 31.6 nM
[1]
  viability, T/C: 26.3%
[2]
  viability, T/C: 7.07%
[3]
  viability, T/C: 4.65%
[4]
  viability, T/C: 3.5%
[5]
  viability, T/C: 3.48%
[6]
  viability, T/C: 3.16%
[7]
  viability, T/C: 36%
[8]
  viability, T/C: 9.38%
[9]
  viability, T/C: 4.42%
[10]
  viability, T/C: 3.56%
[11]
  viability, T/C: 2.98%
[12]
  viability, T/C: 2.77%
[13]
  viability, T/C: 25.9%
[14]
  viability, T/C: 10.1%
[15]
  viability, T/C: 4.5%
[16]
  viability, T/C: 3.48%
[17]
  viability, T/C: 3.21%
[18]
  viability, T/C: 2.42%
[19]
  viability, T/C: 29.4%
[20]
  viability, T/C: 10.3%
[21]
  viability, T/C: 4.41%
[22]
  viability, T/C: 3.09%
[23]
  viability, T/C: 2.69%
[24]
  viability, T/C: 2.28%
[25]
  viability, T/C: 29.5%
[26]
  viability, T/C: 7.74%
[27]
  viability, T/C: 3.99%
[28]
  viability, T/C: 2.88%
[29]
  viability, T/C: 2.96%
[30]
  viability, T/C: 2.33%
[31]
  viability, T/C: 22%
[32]
  viability, T/C: 8.66%
[33]
  viability, T/C: 3.65%
[34]
  viability, T/C: 3.1%
[35]
  viability, T/C: 2.74%
[36]
  viability, T/C: 2.24%

## CCc1cc2c(N3CCc4c(cc(Cn5ccnc5)cc4-c4cn(C)nc4C(F)(F)F)C3=O)cc(C)nc2c(OC)n1 + Nc1ccc(C#CCN(C(=O)Cc2ncc(C(F)(F)F)cc2C(F)(F)F)c2ccc(F)cc2)nn1
Second compound 0.0316 µM
  IC50: 1750 nM
Second compound 0.1 µM
  IC50: 2070 nM
Second compound 0.316 µM
  IC50: 1650 nM
Second compound 1 µM
  IC50: 2190 nM
Second compound 3.16 µM
  IC50: 973 nM
Second compound 10 µM
  IC50: 963 nM
[1]
  viability, T/C: 85.5%
[2]
  viability, T/C: 73.8%
[3]
  viability, T/C: 67.8%
[4]
  viability, T/C: 56.1%
[5]
  viability, T/C: 43.7%
[6]
  viability, T/C: 31.4%
[7]
  viability, T/C: 101%
[8]
  viability, T/C: 80.5%
[9]
  viability, T/C: 71.9%
[10]
  viability, T/C: 62.2%
[11]
  viability, T/C: 46.7%
[12]
  viability, T/C: 26.7%
[13]
  viability, T/C: 92.9%
[14]
  viability, T/C: 80.3%
[15]
  viability, T/C: 71.7%
[16]
  viability, T/C: 57.1%
[17]
  viability, T/C: 40.4%
[18]
  viability, T/C: 30%
[19]
  viability, T/C: 87%
[20]
  viability, T/C: 66.3%
[21]
  viability, T/C: 72.4%
[22]
  viability, T/C: 82.6%
[23]
  viability, T/C: 37.3%
[24]
  viability, T/C: 23%
[25]
  viability, T/C: 98%
[26]
  viability, T/C: 76.7%
[27]
  viability, T/C: 65.5%
[28]
  viability, T/C: 49%
[29]
  viability, T/C: 37.8%
[30]
  viability, T/C: 29.1%
[31]
  viability, T/C: 101%
[32]
  viability, T/C: 71.3%
[33]
  viability, T/C: 68.5%
[34]
  viability, T/C: 50.2%
[35]
  viability, T/C: 38.3%
[36]
  viability, T/C: 30.4%

## CCc1cc2c(N3CCc4c(cc(Cn5ccnc5)cc4-c4cn(C)nc4C(F)(F)F)C3=O)ccnc2c(OC)n1 + Nc1ccc(C#CCN(C(=O)Cc2ncc(C(F)(F)F)cc2C(F)(F)F)c2ccc(F)cc2)nn1
Second compound 0.0316 µM
  IC50: 2590 nM
Second compound 0.1 µM
  IC50: 2410 nM
Second compound 0.316 µM
  IC50: 2610 nM
Second compound 1 µM
  IC50: 2330 nM
Second compound 3.16 µM
  IC50: 3440 nM
Second compound 10 µM
  IC50: 2630 nM
[1]
  viability, T/C: 84.2%
[2]
  viability, T/C: 77.9%
[3]
  viability, T/C: 84.1%
[4]
  viability, T/C: 76.3%
[5]
  viability, T/C: 44.5%
[6]
  viability, T/C: 29.7%
[7]
  viability, T/C: 83.7%
[8]
  viability, T/C: 82.7%
[9]
  viability, T/C: 78.2%
[10]
  viability, T/C: 67.9%
[11]
  viability, T/C: 44%
[12]
  viability, T/C: 37.5%
[13]
  viability, T/C: 86.3%
[14]
  viability, T/C: 74.6%
[15]
  viability, T/C: 64%
[16]
  viability, T/C: 64.8%
[17]
  viability, T/C: 49%
[18]
  viability, T/C: 34%
[19]
  viability, T/C: 83.6%
[20]
  viability, T/C: 70.5%
[21]
  viability, T/C: 74.8%
[22]
  viability, T/C: 60.7%
[23]
  viability, T/C: 44.8%
[24]
  viability, T/C: 31%
[25]
  viability, T/C: 97.5%
[26]
  viability, T/C: 95%
[27]
  viability, T/C: 72.7%
[28]
  viability, T/C: 68.8%
[29]
  viability, T/C: 52.1%
[30]
  viability, T/C: 33.9%
[31]
  viability, T/C: 83.8%
[32]
  viability, T/C: 84%
[33]
  viability, T/C: 69.7%
[34]
  viability, T/C: 67.3%
[35]
  viability, T/C: 45.5%
[36]
  viability, T/C: 31.4%

## O=C(Nc1ccc(O)c(NS(=O)(=O)c2ccc(F)cc2)c1)c1ccc(-c2ccccc2)cc1 + Nc1ccc(C#CCN(C(=O)Cc2ncc(C(F)(F)F)cc2C(F)(F)F)c2ccc(F)cc2)nn1
Second compound 0.0316 µM
  IC50: 6530 nM
Second compound 0.1 µM
  IC50: 7120 nM
Second compound 0.316 µM
  IC50: 6800 nM
Second compound 1 µM
  IC50: 7730 nM
Second compound 3.16 µM
  IC50: 7080 nM
Second compound 10 µM
  IC50: 6950 nM
[1]
  viability, T/C: 109%
[2]
  viability, T/C: 94.8%
[3]
  viability, T/C: 107%
[4]
  viability, T/C: 101%
[5]
  viability, T/C: 70.2%
[6]
  viability, T/C: 38.1%
[7]
  viability, T/C: 103%
[8]
  viability, T/C: 110%
[9]
  viability, T/C: 90.6%
[10]
  viability, T/C: 102%
[11]
  viability, T/C: 74.7%
[12]
  viability, T/C: 39.7%
[13]
  viability, T/C: 113%
[14]
  viability, T/C: 105%
[15]
  viability, T/C: 105%
[16]
  viability, T/C: 107%
[17]
  viability, T/C: 76.9%
[18]
  viability, T/C: 36.5%
[19]
  viability, T/C: 113%
[20]
  viability, T/C: 102%
[21]
  viability, T/C: 100%
[22]
  viability, T/C: 98.2%
[23]
  viability, T/C: 86.6%
[24]
  viability, T/C: 39.5%
[25]
  viability, T/C: 100%
[26]
  viability, T/C: 98.5%
[27]
  viability, T/C: 119%
[28]
  viability, T/C: 96.2%
[29]
  viability, T/C: 88%
[30]
  viability, T/C: 34.1%
[31]
  viability, T/C: 103%
[32]
  viability, T/C: 88.9%
[33]
  viability, T/C: 113%
[34]
  viability, T/C: 97.2%
[35]
  viability, T/C: 85.3%
[36]
  viability, T/C: 33.8%
